Measurements from patent US6544727B1, “Methods and devices for the removal of psoralens from blood products” (Cerus Corporation, priority 1995, dated 2003).
Several values for one entry are separate records, joined by “and”; a condition that tells them apart may be missing. Equal values may be shown once. Read-outs that look alike come from different tables or passages of the source.

Columns and labels:
p-selectin (GMP140) = assay: GMP-140 (p-selectin) expression on platelets, flow cytometry with CD62; format: cell-based, human; settings: 100 μM compound, 5 Joules/cm^2, 5 days storage; FIGS. 21C-24C
Procedure: To measure the effects of the present compounds and methods of decontamination on platelet function using these four indicators, four samples were prepared for each compound tested, two control samples and two containing compound. Three units of human platelets were obtained from the Sacramento Blood Center, Sacramento, Calif. These were each transferred under sterile conditions to 50 ml centrifuge tubes, then aliquots of each unit were transferred into a second set of 50 ml sterile centrifuge tubes. To each centrifuge tube containing platelet concentrate (PC), an aliquot of compound stock was added to reach a final concentration of 100 μM of compound. […] The samples were pipetted gently up and down to mix. Then aliquots (either 3 ml or 8 ml) of each sample was transferred to two sterile Teflon™ Medi-bags™ (American Fluoroseal Co., Silver Springs, Md.) (presently owned by The West Company, Lionville, Pa.). Samples were treated in one of two different sized bags, having either 3 ml or 8 ml capacity. […] For each compound tested, two control samples without compound were prepared by again removing aliquots of platelet concentrate (17 ml if using an 8 ml bag, […] if using a 3 ml bag) from the same one of the first set of 50 ml centrifuge tubes from which the compound sample was drawn, and dividing into Medibags, as before. One of each pair of Medibags containing a compound, and one of each pair of control Medibags, were illuminated for 5 Joules/cm^2 on the device described in Example 1, above. Then all experimental and control Medibags were placed on a platelet shaker for storage for 5 days. The same experiments were repeated several times to obtain more statistically meaningful data, as represented by “n”, the number of data points represented, in the graphs of FIGS. 21-24, discussed below.

[1] = system: Salmonella tester strain TA1537; assay: Ames test, strain TA1537
Procedure: In this example the compounds of the present invention are tested for their dark mutagenicity using an Ames assay. The procedures used for the Salmonella mutagenicity test as described in detail by Maron and Ames were followed exactly. Maron, D. M. and B. N. Ames, Mutation Research 113: 173 ( 1983). A brief description for each procedure is given here. The tester strains TA97a, TA98, TA100, TA102, TA1537 and TA1538 were obtained from Dr. Ames. TA97a, TA98, TA1537 and TA1538 are frameshift tester strains. TA100 and TA102 are base-substitution tester strains. Upon receipt each strain was cultured under a variety of conditions to confirm the genotypes specific to the strains.
The first tests done with the strains were to determine the range of spontaneous reversion for each of the strains. With each mutagenicity experiment the spontaneous reversion of the tester strains to histidine independence was measured and expressed as the number of spontaneous revertants per plate. This served as the background controls.
For all experiments, the pre-incubation procedure was used. In this procedure one vial of each tester strain was thawed and 20 μL of this culture was added to 6 mL of Oxoid Nutrient Broth #2. This solution was allowed to shake for 10 hours at 37° C. In the pre-incubation procedure, 0.1 mL of this overnight culture was added to each of the required number of sterile test tubes. To half of the tubes 0.5 mL of a 10% S-9 solution containing Aroclor 1254 induced rat liver extract (Molecular Toxicology Inc., Annapolis, Md.), and MgCl2, KCl, glucose-6-phosphate, NADP, and sodium phosphate buffer (Sigma, St. Louis, Mo.) were added. To the other half of the tubes 0.5 mL of 0.2M sodium phospate buffer, pH 7.4, was used in place of the S-9 mixture (the—S9samples). Finally 0.1 mL of the test solution containing either 0, 0.1, 0.5, 1, 5, 10, 50, 100, 250, or 500 μg/mL of the test compound was added. The 0.7 mL mixture was vortexed and then pre-incubated while shaking for 20 minutes at 37° C. After shaking, 2 mL of molten top agar supplemented with histidine and biotin were added to the 0.7 mL mixture and immediately poured onto a minimal glucose agar plate (volume of base agar was 20 mL). The top agar was allowed 30 minutes to solidify and then the plates were inverted and incubated for 44 hours at 37° C. After incubation the number of revertant colonies on each plate were counted. […] (“n” represents the number of replicates performed for each data point.)

mouse reticulocytes = settings: for bone marrow toxicity and micronucleus formation on dose escalation (in words): increased dose levels in male Balb/c mice; for PCE/RBC (%): tail vein, once per day for four days, blood on day 5
Procedure: Male Balb/c mice were then injected with 0.1 ml of a compound solution via the tail vein. At least 3 mice were injected per dose level. Saline only was used as a negative control. For a positive control, cyclophosphamide (cycloPP) was administered at a dose of 30 mg/kg. In the experimental group, the injections were repeated once per day for four days. In the positive control group, the sample was administered only once, on day three. On day 5, several microliters of blood were withdrawn from each subject and smeared on a glass slide. Cells were fixed in absolute methanol and stored in a slide rack.
For analysis, cells were stained with acridine orange and visualized under a fluorescence microscope by counting: (i) the number of reticulocytes per 5000 erythrocytes; and (ii) the number of micronucleated reticulocytes per 1000 reticulocytes. Reticulocytes were distinguished by their red fluorescence due to the presence of RNA. Micronuclei were distinguished by their green fluorescence due to the presence of DNA. The percentage of reticulocytes (%PCE) was then calculated. A decrease in the frequency of […] in the percentage of reticulocytes, is an indication of bone marrow toxicity. The percentage of reticulocytes with micronuclei (%PCE with MN) was also calculated. An increase in %PCE with MN is a measure of clastogenicity.
After initial results were determined, the experiment was repeated using increased dose levels, until: (i) Micronucleus formation was seen; or (ii) Bone marrow toxicity was observed; or (iii) The lethal dose was reached; or (iv) A dose of 5 g/kg was administered.

Row | SMILES | GMP-140 expression, treated sample (PCD) against day 5 untreated control (in words) (p-selectin (GMP140)) | revertant colonies per plate ([1]; TA1537 + S9, 10 μg/plate) | revertant colonies per plate ([1]; TA1537 + S9, 50 μg/plate) | revertant colonies per plate ([1]; TA1537 + S9, 100 μg/plate) | revertant colonies per plate ([1]; TA1537 + S9, 250 μg/plate) | revertant colonies per plate ([1]; TA1537 − S9, 10 μg/plate) | revertant colonies per plate ([1]; TA1537 − S9, 50 μg/plate) | revertant colonies per plate ([1]; TA1537 − S9, 100 μg/plate) | revertant colonies per plate ([1]; TA1537 − S9, 250 μg/plate) | bone marrow toxicity and micronucleus formation on dose escalation (in words) (mouse reticulocytes) | further results
1 | Cc1oc2c(C)c3oc(=O)cc(C)c3cc2c1COCCN [Compound 2, 4′-(4-amino-2-oxa)butyl-4,5′,8-trimethylpsoralen] | little or no difference | 5 | 40 | 88 | 744 | 36 | 282 | 258 | 176 | the acutely lethal dose was reached before there were any signs of bone marrow toxicity or micronucleus formation | revertant colonies per plate ([1]; TA1537 + S9, 500 μg/plate): 395; revertant colonies per plate ([1]; TA1537 − S9, 500 μg/plate): 114
2 | Cc1oc2c(C)c3oc(=O)cc(C)c3cc2c1CNCCCCN [Compound 6, 4′-(6-amino-2-aza)hexyl-4,5′,8-trimethylpsoralen] | little or no difference |  |  | 20 and 35 |  |  |  |  |  | the acutely lethal dose was reached before there were any signs of bone marrow toxicity or micronucleus formation | PCE/RBC (%) (mouse reticulocytes; 30 mg/kg): 3.61 ± 0.12%; PCE/RBC (%) (mouse reticulocytes; 45 mg/kg): 3.79 ± 0.41%
3 | Cc1cc(=O)oc2c(C)c3oc(COCCN)c(C)c3cc12 [Compound 18, 5′-(4-amino-2-oxa)butyl-4,4′,8-trimethylpsoralen] | notable increase above the control | 8 | 6 | 26 |  | 21 | 303 | 390 |  | the acutely lethal dose was reached before there were any signs of bone marrow toxicity or micronucleus formation | revertant colonies per plate ([1]; TA1537 + S9, 200 μg/plate): 42; revertant colonies per plate ([1]; TA1537 − S9, 200 μg/plate): 225; PCE/RBC (%) (mouse reticulocytes; 3.75 mg/kg): 3.61 ± 1.14%; PCE/RBC (%) (mouse reticulocytes; 7.5 mg/kg): 3.59 ± 0.33%; PCE/RBC (%) (mouse reticulocytes; 20 mg/kg): 3.48 ± 0.79%
4 | Cc1oc2c(C)c3oc(=O)cc(C)c3cc2c1CN [AMT, 4′-Aminomethyl-4,5′,8-trimethylpsoralen, reference compound] |  | 30 | 94 | 686 and 500 | 3738 | 52 | 2688 |  | 434 |  | revertant colonies per plate ([1]; TA1537 + S9, 0.1 μg/plate): 2; revertant colonies per plate ([1]; TA1537 + S9, 0.5 μg/plate): 2; revertant colonies per plate ([1]; TA1537 + S9, 1 μg/plate): 3; revertant colonies per plate ([1]; TA1537 + S9, 5 μg/plate): 22; revertant colonies per plate ([1]; TA1537 − S9, 0.1 μg/plate): 0; revertant colonies per plate ([1]; TA1537 − S9, 0.5 μg/plate): 3; revertant colonies per plate ([1]; TA1537 − S9, 1 μg/plate): 5; revertant colonies per plate ([1]; TA1537 − S9, 5 μg/plate): 44
